For one data set, the target named is T1, hTS (Homo sapiens, UniProt P04818).
T1 construct: made in house
Briefly: Inhibition of TS-catalyzed reaction (tritium release from [5-3H]dUMP). The class given is biochemical. The text has this:
(§1) The recombinant human, rat, mouse, T. spiralis and C. elegans TS proteins were produced, purified and separated into phosphorylated and non-phosphorylated fraction, as previously described. TS activity was monitored, following tritium release from [5-^3H]dUMP, and its inhibition studied as earlier reported.

For a further data set, the target named is T2, mTS (Mus musculus, UniProt P07607).
T2 construct: made in house
The data set is described as above. The data set is classed as biochemical.
Source text: as §1

The next data set addresses T3, CeTS (Caenorhabditis elegans, UniProt Q9Y052).
T3 sequence (Q9Y052 1-315): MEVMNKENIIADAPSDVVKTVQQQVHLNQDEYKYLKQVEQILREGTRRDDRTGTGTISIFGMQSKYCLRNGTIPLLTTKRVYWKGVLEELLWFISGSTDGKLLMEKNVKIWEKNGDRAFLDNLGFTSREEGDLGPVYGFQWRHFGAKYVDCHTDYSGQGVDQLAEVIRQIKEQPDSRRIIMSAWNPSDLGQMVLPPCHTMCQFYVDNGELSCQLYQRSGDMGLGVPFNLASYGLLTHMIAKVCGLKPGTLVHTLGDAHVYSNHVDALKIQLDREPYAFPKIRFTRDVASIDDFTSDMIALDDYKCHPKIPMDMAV
Described as above. The data set is classed as biochemical, C. elegans.
Source text: as §1

Another data set addresses TsTS (Trichinella spiralis, UniProt Q9NDD3). The data set is described as above. The data set is classed as biochemical, T. spiralis. The note with it: 20 µM dUMP; for pIC50: IC50 Assessment; for remaining activity at 100 µM: compound 100 µM; for remaining activity at 1000 µM: compound 1000 µM.
Source text: as §1

Data set [1] deals with BJ normal human skin fibroblasts. As to the kind of experiment: Cytotoxicity, neutral red uptake (NR) assay. The class given is cell-based. The note with it: Homo sapiens, Skin fibroblast. How it is done: (§2) Biological effect of alvaxanthone and rheediaxanthone B on normal (BJ) and cancer cells (U-118 MG and SCC-15) was estimated using two viability assays, the neutral red uptake (NR) and tetrazolium salts reduction (XTT) assays.
(§3) Human glioblastoma cells U-118 MG (ATCC® HTB-15), human squamous carcinoma cells SCC-15 (ATCC® CRL-1623), and normal human skin fibroblasts (ATCC® CRL-2522) were grown, their morphology checked, and number and viability estimated as earlier presented.
(§4) Influence of selected compounds on cells was tested by performing the cytotoxicity (NR and XTT) assays, proliferation assay, cell adhesion assay, cell migration assay, determination of intracellular ATP level, and apoptosis assay as previously reported.

Data set [2] deals with U-118 MG human glioblastoma cells. As to the kind of experiment: Cytotoxicity, neutral red uptake (NR) assay. The data set is classed as cell-based. The procedure: as §2, §3, §4
Data set [3] relates to SCC-15 human squamous carcinoma cells. Briefly: Cytotoxicity, neutral red uptake (NR) assay. The class given is cell-based. The note with it: Homo sapiens. How it is done:
as §2, §3, §4

Data set [4] concerns C. elegans. The note with it: read-out: LC50 (C. elegans population growth); previously found; cited from earlier work.
Data set [5] has as its system C. elegans. Briefly: Toxicity to C. elegans (population growth). The note with it: in vivo. The procedure: C. elegans was maintained as previously described. The effect of the compounds studied on C. elegans population growth was determined as earlier presented.
The mark [6] stands for this setting: 20 µM dUMP, 50 µM meTHF, read-out: IC50 Assessment.
Setting [7] is: compound 100 µM, 20 µM dUMP, 50 µM meTHF, read-out: % Remaining Activity.

SMILES strings stand for the structures. pIC50: −log10 of the molar value. Where two headings read alike, the source gives them in different places.

The remaining activity is the activity still measured, relative to the control. One may read the pIC50 as the IC50 on a negative log10 scale, so that one unit is a factor of ten. As a reminder, the LC50 is the concentration lethal to half of the exposed cells or organisms.

Chain of TsTS (Q9NDD3 entry or part of it): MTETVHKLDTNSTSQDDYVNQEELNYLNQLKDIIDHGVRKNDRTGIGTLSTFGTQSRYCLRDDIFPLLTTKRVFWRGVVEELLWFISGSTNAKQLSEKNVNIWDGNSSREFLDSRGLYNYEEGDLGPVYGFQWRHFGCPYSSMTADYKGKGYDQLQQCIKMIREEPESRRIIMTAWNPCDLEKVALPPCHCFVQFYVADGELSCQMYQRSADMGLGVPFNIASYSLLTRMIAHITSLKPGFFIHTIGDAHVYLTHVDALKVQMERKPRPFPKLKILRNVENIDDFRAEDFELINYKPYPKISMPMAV
T1 sequence (P04818 whole entry): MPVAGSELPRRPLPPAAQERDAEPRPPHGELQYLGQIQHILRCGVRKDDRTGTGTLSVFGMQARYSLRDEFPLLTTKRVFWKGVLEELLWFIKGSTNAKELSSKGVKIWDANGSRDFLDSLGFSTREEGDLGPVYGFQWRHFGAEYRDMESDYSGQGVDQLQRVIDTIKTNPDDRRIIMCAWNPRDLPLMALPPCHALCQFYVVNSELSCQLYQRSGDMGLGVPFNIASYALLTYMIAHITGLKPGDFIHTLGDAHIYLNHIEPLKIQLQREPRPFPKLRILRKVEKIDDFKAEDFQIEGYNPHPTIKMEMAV
T2 sequence (P07607 whole entry): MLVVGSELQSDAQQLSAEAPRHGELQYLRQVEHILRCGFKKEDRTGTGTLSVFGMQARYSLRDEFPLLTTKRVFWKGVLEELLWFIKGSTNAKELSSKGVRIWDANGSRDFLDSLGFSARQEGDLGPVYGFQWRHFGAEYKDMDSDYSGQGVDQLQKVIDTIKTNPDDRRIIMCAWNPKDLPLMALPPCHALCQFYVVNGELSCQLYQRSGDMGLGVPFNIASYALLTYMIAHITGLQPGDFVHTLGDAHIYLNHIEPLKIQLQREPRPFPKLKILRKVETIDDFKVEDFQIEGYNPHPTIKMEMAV

For the compound `COc1c(O)cc2oc3ccccc3c(=O)c2c1O` [1,3-OH-2-OMe-Xanthone (16), 1,3-OH-2-OMe-Xanthone], the remaining activity at 100 µM came out at 54% at hTS, 67% on mTS, 82% on TsTS (50 µM meTHF) and 92% at TsTS (250 µM meTHF). Further, the remaining activity at 1000 µM on hTS was found to be 27%; on mTS it was 32%; at CeTS it was 65%; at TsTS (50 µM meTHF), 32%; on TsTS (250 µM meTHF), 23%. Besides, the pIC50 at CeTS (IC50 Assessment, 20 µM dUMP, 250 µM meTHF) is less than 3.00; against TsTS (50 µM meTHF), less than 4.00; on TsTS (250 µM meTHF), less than 4.00; in data set [1] it was less than 4.40; in [2] (U-118-MG), less than 4.40; in data set [3], less than 4.40.

Take `COC(=O)Nc1nc2ccc(C(=O)c3ccccc3)cc2[nH]1` [mebendazole]: the LC50 in the data set on C. elegans [4] was 4 µM.

Take `CC1Oc2c(c3c(c4oc5c(O)c(O)ccc5c(=O)c24)C(C)(C)C(C)O3)C1(C)C` (stereo not shown) [Rheediaxanthone C (18), Rheediaxanthone C]: the “toxicity for the worm” value in the data set with C. elegans [5] was “does not show toxicity for the worm”. The pIC50 is less than 4.00 at hTS (setting [6]); less than 4.00 on CeTS (setting [6]); less than 4.00 at TsTS (50 µM meTHF); 5.23 in data set [1] (neutral red assay, BJ, read-out: IC50); 4.74 in [2] (neutral red assay, U-118 MG, read-out: IC50); 4.96 in data set [3] (SCC-15, neutral red assay, read-out: IC50). The remaining activity at 100 µM at hTS (setting [7]) is 57%; at mTS (setting [7]), 39%; at CeTS (setting [7]), 71%; on TsTS (50 µM meTHF), 73%. For the same compound, the remaining activity at 10 µM at mTS (compound 10 µM, 20 µM dUMP, 50 µM meTHF) came to 77%.

Values taken from article PMC7356228, “Alvaxanthone, a Thymidylate Synthase Inhibitor with Nematocidal and Tumoricidal Activities” (Molecules, 2020).
